Assay [1] deals with T1, DDR1 (Homo sapiens, UniProt Q08345). The experiment in a line: DDR1 LanthaScreen Europium Kinase Binding assay. Conditions: binding affinity; IC50 converted in Ki using Cheng-Prusoff; read-out: Ki DDR1. In a few lines: (§1)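 Binding by TR-FRET tracer displacement: compounds incubated 1 h at room temperature with 5 nM DDR1 plus 20 nM Kinase Tracer 178, or 5 nM DDR2 plus 10 nM tracer, and 2 nM Eu anti-GST antibody in pH 7.5 HEPES/MgCl2/EGTA/BRIJ35 buffer. 665/615 nm ratio gave four-parameter IC50, converted to Ki via Cheng-Prusoff.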
(In general: Time-resolved FRET reads energy transfer from a long-lived donor to a nearby acceptor.)

Assay [2] deals with T2, DDR2 (Homo sapiens, UniProt Q16832).
T2 sequence (Q16832 22-855): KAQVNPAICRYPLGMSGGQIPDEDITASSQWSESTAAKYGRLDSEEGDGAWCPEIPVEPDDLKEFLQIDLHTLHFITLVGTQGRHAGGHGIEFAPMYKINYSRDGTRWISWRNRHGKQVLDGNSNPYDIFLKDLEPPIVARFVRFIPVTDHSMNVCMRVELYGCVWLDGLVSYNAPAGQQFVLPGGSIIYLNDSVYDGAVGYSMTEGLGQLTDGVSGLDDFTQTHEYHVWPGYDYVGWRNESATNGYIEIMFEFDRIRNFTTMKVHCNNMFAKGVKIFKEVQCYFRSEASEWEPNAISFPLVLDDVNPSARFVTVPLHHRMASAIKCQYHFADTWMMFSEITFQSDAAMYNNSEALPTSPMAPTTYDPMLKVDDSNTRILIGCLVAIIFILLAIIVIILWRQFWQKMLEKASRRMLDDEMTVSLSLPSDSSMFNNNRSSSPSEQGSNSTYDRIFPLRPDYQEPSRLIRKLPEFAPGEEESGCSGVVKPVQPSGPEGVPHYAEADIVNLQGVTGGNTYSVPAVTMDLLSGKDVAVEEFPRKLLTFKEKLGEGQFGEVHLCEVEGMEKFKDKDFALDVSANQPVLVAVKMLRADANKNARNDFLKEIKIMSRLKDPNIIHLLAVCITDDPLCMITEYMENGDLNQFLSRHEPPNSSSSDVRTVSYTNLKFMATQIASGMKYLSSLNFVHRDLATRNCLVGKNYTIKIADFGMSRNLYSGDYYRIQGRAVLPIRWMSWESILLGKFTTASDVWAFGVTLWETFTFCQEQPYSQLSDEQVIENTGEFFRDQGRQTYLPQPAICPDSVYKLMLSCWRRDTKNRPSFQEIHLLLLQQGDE
Nature of the assay: DDR2 LanthaScreen Europium Kinase Binding assay. The note with it: binding affinity; IC50 converted in Ki using Cheng-Prusoff; read-out: Ki DDR2. A digest of the protocol:
as §1

Assay [3] concerns the target T1, DDR1. The experiment in a line: DDR1 cell based assay (PathHunter U2OS DDR1, collagen II stimulation). Conditions: U2OS-DDR1 cells, bovine Type II Collagen stimulation. A digest of the protocol: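 Receptor activation measured by enzyme-fragment complementation luminescence in engineered U2OS cells. Compound added 30 min before overnight challenge with 20 μg/ml bovine collagen II; data scaled between vehicle and collagen-stimulated controls, IC50 derived by four-parameter variable-slope fitting.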

Experimental findings from US20240217967A1, “INDOLINE DERIVATIVES AS DDRS INHIBITORS” (CHIESI FARMACEUTICI S.P.A., priority 2021, published 2024) are described below.

T1 sequence (Q08345 19-913): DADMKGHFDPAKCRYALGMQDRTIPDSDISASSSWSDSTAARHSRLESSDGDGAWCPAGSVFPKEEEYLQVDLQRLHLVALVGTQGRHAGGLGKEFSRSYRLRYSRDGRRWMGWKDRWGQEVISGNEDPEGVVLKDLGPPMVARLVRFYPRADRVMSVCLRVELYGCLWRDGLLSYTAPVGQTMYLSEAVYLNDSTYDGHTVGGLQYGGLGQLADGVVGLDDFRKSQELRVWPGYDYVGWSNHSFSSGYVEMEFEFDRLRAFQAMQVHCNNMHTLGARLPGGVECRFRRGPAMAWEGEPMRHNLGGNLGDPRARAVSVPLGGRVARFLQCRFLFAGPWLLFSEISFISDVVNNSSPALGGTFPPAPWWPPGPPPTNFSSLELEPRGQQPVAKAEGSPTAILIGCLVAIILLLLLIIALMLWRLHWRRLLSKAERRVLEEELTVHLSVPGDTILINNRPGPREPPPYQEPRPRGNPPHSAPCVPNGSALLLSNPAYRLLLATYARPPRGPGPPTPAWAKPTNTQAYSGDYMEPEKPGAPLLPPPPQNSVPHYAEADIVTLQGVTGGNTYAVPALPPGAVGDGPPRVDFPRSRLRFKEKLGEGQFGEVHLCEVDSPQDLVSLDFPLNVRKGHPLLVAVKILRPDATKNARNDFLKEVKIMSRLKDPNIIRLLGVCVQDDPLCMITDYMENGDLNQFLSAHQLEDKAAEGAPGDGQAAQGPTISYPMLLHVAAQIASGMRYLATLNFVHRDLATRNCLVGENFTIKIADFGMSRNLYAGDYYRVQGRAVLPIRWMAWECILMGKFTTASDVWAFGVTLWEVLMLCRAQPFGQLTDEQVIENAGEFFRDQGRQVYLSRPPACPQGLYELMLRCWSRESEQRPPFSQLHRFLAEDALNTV

Turning to `Cc1n[nH]c2ncc(CN3CCc4ccc(C(=O)Nc5cc(C(=O)NCCN(C)C)cc(C(F)(F)F)c5)cc43)cc12` [Example 73, N-(3-((2-(dimethylamino)ethyl)carbamoyl)-5-(trifluoromethyl)phenyl)-1-((3-methyl-1H-pyrazolo[3,4-b]pyridin-5-yl)methyl)indoline-6-carboxamide], the inhibitory constant (Ki) in assay [1] and in assay [2] was less than 25 nM each time. In addition, the half-maximal inhibitory concentration (IC50) (in general, the concentration needed to halve the response being measured) in assay [3] was less than 25 nM.

Take `Cc1n[nH]c2ncc(CN3CCc4ccc(C(=O)Nc5cc(C(=O)N6CCN(C)CC6)cc(C(F)(F)F)c5)cc43)cc12` [Example 74, 1-((3-methyl-1H-pyrazolo[3,4-b]pyridin-5-yl)methyl)-N-(3-(4-methylpiperazine-1-carbonyl)-5-(trifluoromethyl)phenyl)indoline-6-carboxamide]: the Ki in assay [1] and in assay [2] was less than 25 nM in each case. In assay [3], the half-inhibitory concentration (IC50) is less than 25 nM.

Turning to `CN1CCN(Cc2ccc(NC(=O)c3ccc4c(c3)N(Cc3cnc5ccnn5c3)CC4)cc2C(F)(F)F)CC1` [Example 76, N-(4-((4-methylpiperazin-1-yl)methyl)-3-(trifluoromethyl)phenyl)-1-(pyrazolo[1,5-a]pyrimidin-6-ylmethyl)indoline-6-carboxamide], the Ki in assay [1] and in assay [2] was less than 25 nM in each case. Besides, the IC50 in assay [3] is less than 25 nM.

Regarding `CN1CCN(Cc2ccc(NC(=O)c3ccc4c(c3)N(Cc3cnc5c(c3)CCN5)CC4)cc2C(F)(F)F)CC1` [Example 77, 1-((2,3-dihydro-1H-pyrrolo[2,3-b]pyridin-5-yl)methyl)-N-(4-((4-methylpiperazin-1-yl)methyl)-3-(trifluoromethyl)phenyl)indoline-6-carboxamide], the Ki (commonly the dissociation constant of the complex between target and ligand, obtained from inhibition or displacement) is less than 25 nM in assay [1] and 25 to 50 nM in assay [2]. Further, the IC50 in assay [3] is less than 25 nM.

On to `CC(C)(C)c1cc(NC(=O)c2ccc3c(c2)N(Cc2cnc4[nH]ncc4c2)CC3)on1` [Example 78, 1-((1H-pyrazolo[3,4-b]pyridin-5-yl)methyl)-N-(3-(tert-butyl)isoxazol-5-yl)indoline-6-carboxamide], for which the Ki in assay [1] and in assay [2] was less than 25 nM each time. The IC50 in assay [3] is less than 25 nM.

Regarding `CC(C)(C)c1cc(NC(=O)c2ccc3c(c2)N(Cc2cnc4cnccn24)CC3)on1` [Example 79, N-(3-(tert-butyl)isoxazol-5-yl)-1-(imidazo[1,2-a]pyrazin-3-ylmethyl)indoline-6-carboxamide], the Ki in assay [1] and in assay [2] was less than 25 nM in each case. The half-maximal inhibitory concentration (IC50) in assay [3] is 50 to 80 nM.

As to `Cc1n[nH]c2ncc(CN3CCc4ccc(C(=O)Nc5cc(CN6CCN(C)CC6)nc(C(F)(F)F)c5)cc43)cc12` [Example 81, 1-((3-methyl-1H-pyrazolo[3,4-b]pyridin-5-yl)methyl)-N-(2-((4-methylpiperazin-1-yl)methyl)-6-(trifluoromethyl)pyridin-4-yl)indoline-6-carboxamide], the inhibition constant (Ki) in assay [1] and in assay [2] was less than 25 nM each time. This molecule displayed a half-maximal inhibitory concentration (IC50) in assay [3] of less than 25 nM.

As to `Cc1n[nH]c2ncc(CN3CCc4ccc(C(=O)Nc5cc(CN(C)C)nc(C(F)(F)F)c5)cc43)cc12` [Example 82, N-(2-((dimethylamino)methyl)-6-(trifluoromethyl)pyridin-4-yl)-1-((3-methyl-1H-pyrazolo[3,4-b]pyridin-5-yl)methyl)indoline-6-carboxamide], the Ki in assay [1] and in assay [2] was less than 25 nM in each case. In assay [3], this molecule displayed a half-maximal inhibitory concentration (IC50) of less than 25 nM.

Consider `CN(C)Cc1c[nH]c2ncc(CN3CCc4ccc(C(=O)Nc5cncc(C(F)(F)F)c5)cc43)cc12` [Example 83, 1-((3-((dimethylamino)methyl)-1H-pyrrolo[2,3-b]pyridin-5-yl)methyl)-N-(5-(trifluoromethyl)pyridin-3-yl)indoline-6-carboxamide], for which the inhibitory constant (Ki) in assay [1] and in assay [2] was less than 25 nM in each case. In addition, in assay [3], the IC50 was less than 25 nM.

Turning to `Cc1n[nH]c2ncc(CN3CCc4ccc(C(=O)Nc5cc(CN6CC[C@@H](N(C)C)C6)nc(C(F)(F)F)c5)cc43)cc12` [Example 84, (R)-N-(2-((3-(dimethylamino)pyrrolidin-1-yl)methyl)-6-(trifluoromethyl)pyridin-4-yl)-1-((3-methyl-1H-pyrazolo[3,4-b]pyridin-5-yl)methyl)indoline-6-carboxamide], the inhibition constant Ki in assay [1] and in assay [2] was less than 25 nM in each case. The same molecule yielded an IC50 in assay [3] of less than 25 nM.

As for `Cc1n[nH]c2ncc(CN3CCc4ccc(C(=O)Nc5cc(OCCN6CCCC6)cc(C(F)(F)F)c5)cc43)cc12` [Example 85, 1-((3-methyl-1H-pyrazolo[3,4-b]pyridin-5-yl)methyl)-N-(3-(2-(pyrrolidin-1-yl)ethoxy)-5-(trifluoromethyl)phenyl)indoline-6-carboxamide], the inhibition constant Ki in assay [1] and in assay [2] was less than 25 nM throughout. In assay [3], this molecule gave an IC50 of less than 25 nM.

Turning to `CN1CCN(Cc2ccc(NC(=O)c3ccc4c(c3)N(Cc3cnn5ccncc35)CC4)cc2C(F)(F)F)CC1` [Example 86, N-(4-((4-methylpiperazin-1-yl)methyl)-3-(trifluoromethyl)phenyl)-1-(pyrazolo[1,5-a]pyrazin-3-ylmethyl)indoline-6-carboxamide], the Ki in assay [1] and in assay [2] was less than 25 nM each time. Moreover, the concentration for half-maximal inhibition (IC50) in assay [3] fell in the range of 25 to 50 nM.

In the case of `Cn1nc(NC(=O)c2ccc3c(c2)N(Cc2cnc4cnccn24)CC3)cc1C(C)(C)C` [Example 87, N-(5-(tert-butyl)-1-methyl-1H-pyrazol-3-yl)-1-(imidazo[1,2-a]pyrazin-3-ylmethyl)indoline-6-carboxamide], the Ki in assay [1] and in assay [2] was less than 25 nM in each case. Further, the concentration for half-maximal inhibition (IC50) in assay [3] was 25 to 50 nM.

As to `O=C(Nc1cc(C(F)(F)F)ncn1)c1ccc2c(c1)N(Cc1cnc3cnccn13)CC2` [Example 88], the Ki in assay [1] and in assay [2] was less than 25 nM throughout. Also, the IC50 in assay [3] was 50 to 80 nM.

As for `CN(C)Cc1c[nH]c2ncc(CN3CCc4ccc(C(=O)Nc5cccc(C(F)(F)F)c5)cc43)cc12` [Example 90, 1-((3-((dimethylamino)methyl)-1H-pyrrolo[2,3-b]pyridin-5-yl)methyl)-N-(3-(trifluoromethyl)phenyl)indoline-6-carboxamide], the Ki in assay [1] and in assay [2] was less than 25 nM in each case. The same molecule yielded a concentration for half-maximal inhibition (IC50) in assay [3] of less than 25 nM.

`CC1CN(Cc2cnc3[nH]ncc3c2)c2cc(C(=O)Nc3cncc(C(F)(F)F)c3)ccc21` (stereo not drawn) [Example 91, 1-((1H-pyrazolo[3,4-b]pyridin-5-yl)methyl)-3-methyl-N-(5-(trifluoromethyl)pyridin-3-yl)indoline-6-carboxamide]: the inhibition constant Ki in assay [1] and in assay [2] was less than 25 nM throughout. Further, in assay [3], the IC50 was less than 25 nM.

Turning to `CC1CN(Cc2cnc3cnccn23)c2cc(C(=O)Nc3cncc(C(F)(F)F)c3)ccc21` (stereo not drawn) [Example 92, 1-(imidazo[1,2-a]pyrazin-3-ylmethyl)-3-methyl-N-(5-(trifluoromethyl)pyridin-3-yl)indoline-6-carboxamide], the inhibitory constant (Ki) in assay [1] and in assay [2] was less than 25 nM each time. The molecule further showed an IC50 in assay [3] of 25 to 50 nM.
